According to US20260053811A1, “METHODS OF TREATING HYPERTENSION IN OBESE SUBJECTS” (Mineralys Therapeutics, Inc., priority 2022, published 2026):

Test system: hypertensive subjects
Test: Estimated glomerular filtration rate (eGFR, CKD-EPI equation)
Format: in vivo, human
Settings: for Estimated Glomerular Filtration Rate, Mean (SD) Change from Baseline / Estimated Glomerular Filtration Rate, Mean (SD) Observed: Part 1; for Estimated Glomerular Filtration Rate, Mean Change from Baseline / Estimated Glomerular Filtration Rate, Mean Observed: Part 2; for Change in estimated glomerular filtration rate (eGFR): across dosing cohorts
Procedure: In contrast, mean eGFR for the Placebo group was relatively stable throughout treatment, reaching a mean maximal reduction of −2.80 mL/min/1.73 m^2 at Week 2 (range: −0.83 mL/min/1.73 m^2 to −2.80 mL/min/1.73 m^2). Estimated glomerular filtration rate was estimated using the CKD-EPI equation.

SMILES: CC(=O)N[C@H]1CC[C@H](NC(=O)CN2CCN(c3nncc(-c4ccc(C)cc4)n3)CC2)CC1 [Compound A HBr]
- Estimated Glomerular Filtration Rate, Mean (SD) Change from Baseline (Week 5, 100 mg QD): −10.50 (10.94) mL/min/1.73 m^2
- Estimated Glomerular Filtration Rate, Mean (SD) Observed (Week 5, 100 mg QD): 66.19 (19.58) mL/min/1.73 m^2
- Estimated Glomerular Filtration Rate, Mean (SD) Change from Baseline (Week 6, 12.5 mg BID): −6.45 (8.05) mL/min/1.73 m^2
- Estimated Glomerular Filtration Rate, Mean (SD) Observed (Week 6, 12.5 mg BID): 74.70 (16.86) mL/min/1.73 m^2
- Estimated Glomerular Filtration Rate, Mean (SD) Change from Baseline (Week 6, 12.5 mg QD): −6.28 (6.77) mL/min/1.73 m^2
- Estimated Glomerular Filtration Rate, Mean (SD) Observed (Week 6, 12.5 mg QD): 73.39 (20.48) mL/min/1.73 m^2
- Estimated Glomerular Filtration Rate, Mean (SD) Change from Baseline (Week 6, 25 mg BID): −8.02 (9.17) mL/min/1.73 m^2
- Estimated Glomerular Filtration Rate, Mean (SD) Observed (Week 6, 25 mg BID): 72.64 (15.33) mL/min/1.73 m^2
- Estimated Glomerular Filtration Rate, Mean (SD) Change from Baseline (Week 6, 50 mg QD): −2.83 (8.61) mL/min/1.73 m^2
- Estimated Glomerular Filtration Rate, Mean (SD) Observed (Week 6, 50 mg QD): 74.63 (16.59) mL/min/1.73 m^2
- Estimated Glomerular Filtration Rate, Mean (SD) Change from Baseline (Week 6, 100 mg QD): −9.94 (12.91) mL/min/1.73 m^2
- Estimated Glomerular Filtration Rate, Mean (SD) Observed (Week 6, 100 mg QD): 66.19 (21.44) mL/min/1.73 m^2
- Estimated Glomerular Filtration Rate, Mean (SD) Change from Baseline (Week 7, 12.5 mg BID): −7.03 (8.98) mL/min/1.73 m^2
- Estimated Glomerular Filtration Rate, Mean (SD) Observed (Week 7, 12.5 mg BID): 75.85 (21.29) mL/min/1.73 m^2
- Estimated Glomerular Filtration Rate, Mean (SD) Change from Baseline (Week 7, 12.5 mg QD): −7.17 (8.80) mL/min/1.73 m^2
- Estimated Glomerular Filtration Rate, Mean (SD) Observed (Week 7, 12.5 mg QD): 72.50 (22.45) mL/min/1.73 m^2
- Estimated Glomerular Filtration Rate, Mean (SD) Change from Baseline (Week 7, 25 mg BID): −7.85 (9.47) mL/min/1.73 m^2
- Estimated Glomerular Filtration Rate, Mean (SD) Observed (Week 7, 25 mg BID): 72.22 (13.89) mL/min/1.73 m^2
- Estimated Glomerular Filtration Rate, Mean (SD) Change from Baseline (Week 7, 50 mg QD): −5.46 (10.42) mL/min/1.73 m^2
- Estimated Glomerular Filtration Rate, Mean (SD) Observed (Week 7, 50 mg QD): 69.68 (12.23) mL/min/1.73 m^2
- Estimated Glomerular Filtration Rate, Mean (SD) Change from Baseline (Week 7, 100 mg QD): −9.50 (12.17) mL/min/1.73 m^2
- Estimated Glomerular Filtration Rate, Mean (SD) Observed (Week 7, 100 mg QD): 66.96 (21.02) mL/min/1.73 m^2
- Estimated Glomerular Filtration Rate, Mean (SD) Change from Baseline (Week 8, 12.5 mg BID): −6.66 (7.92) mL/min/1.73 m^2
- Estimated Glomerular Filtration Rate, Mean (SD) Observed (Week 8, 12.5 mg BID): 76.32 (19.63) mL/min/1.73 m^2
- Estimated Glomerular Filtration Rate, Mean (SD) Change from Baseline (Week 8, 12.5 mg QD): −3.67 (8.10) mL/min/1.73 m^2
- Estimated Glomerular Filtration Rate, Mean (SD) Observed (Week 8, 12.5 mg QD): 76.00 (21.00) mL/min/1.73 m^2
- Estimated Glomerular Filtration Rate, Mean (SD) Change from Baseline (Week 8, 25 mg BID): −5.55 (9.22) mL/min/1.73 m^2
- Estimated Glomerular Filtration Rate, Mean (SD) Observed (Week 8, 25 mg BID): 75.11 (14.81) mL/min/1.73 m^2
- Estimated Glomerular Filtration Rate, Mean (SD) Change from Baseline (Week 8, 50 mg QD): −4.64 (9.87) mL/min/1.73 m^2
- Estimated Glomerular Filtration Rate, Mean (SD) Observed (Week 8, 50 mg QD): 72.54 (16.89) mL/min/1.73 m^2
- Estimated Glomerular Filtration Rate, Mean (SD) Change from Baseline (Week 8, 100 mg QD): −7.83 (11.62) mL/min/1.73 m^2
- Estimated Glomerular Filtration Rate, Mean (SD) Observed (Week 8, 100 mg QD): 68.42 (20.14) mL/min/1.73 m^2
- Estimated Glomerular Filtration Rate, Mean Change from Baseline (Week 1, 100 mg QD): −9.65 mL/min/1.73 m^2
- Estimated Glomerular Filtration Rate, Mean Observed (Week 1, 100 mg QD): 70.73 mL/min/1.73 m^2
- Estimated Glomerular Filtration Rate, Mean Change from Baseline (Week 2, 100 mg QD): −8.05 mL/min/1.73 m^2
- Estimated Glomerular Filtration Rate, Mean Observed (Week 2, 100 mg QD): 72.07 mL/min/1.73 m^2
- Estimated Glomerular Filtration Rate, Mean Change from Baseline (Week 3, 100 mg QD): −7.33 mL/min/1.73 m^2
- Estimated Glomerular Filtration Rate, Mean Observed (Week 3, 100 mg QD): 72.69 mL/min/1.73 m^2
- Estimated Glomerular Filtration Rate, Mean Change from Baseline (Week 4, 100 mg QD): −7.20 mL/min/1.73 m^2
- Estimated Glomerular Filtration Rate, Mean Observed (Week 4, 100 mg QD): 72.92 mL/min/1.73 m^2
- Estimated Glomerular Filtration Rate, Mean Change from Baseline (Week 5, 100 mg QD): −8.69 mL/min/1.73 m^2
- Estimated Glomerular Filtration Rate, Mean Observed (Week 5, 100 mg QD): 71.23 mL/min/1.73 m^2
- Estimated Glomerular Filtration Rate, Mean Change from Baseline (Week 6, 100 mg QD): −10.87 mL/min/1.73 m^2
- Estimated Glomerular Filtration Rate, Mean Observed (Week 6, 100 mg QD): 68.04 mL/min/1.73 m^2
- Estimated Glomerular Filtration Rate, Mean Change from Baseline (Week 7, 100 mg QD): −7.34 mL/min/1.73 m^2
- Estimated Glomerular Filtration Rate, Mean Observed (Week 7, 100 mg QD): 72.82 mL/min/1.73 m^2
- Estimated Glomerular Filtration Rate, Mean Change from Baseline (Week 8, 100 mg QD): −7.95 mL/min/1.73 m^2
- Estimated Glomerular Filtration Rate, Mean Observed (Week 8, 100 mg QD): 72.43 mL/min/1.73 m^2
- Change in estimated glomerular filtration rate (eGFR): dose-dependent and reversible reduction in eGFR
- Change in estimated glomerular filtration rate (eGFR) (listed as lorundrostat): dose-dependent and reversible reduction in eGFR
